# Data from article PMC6154605, “Multi-Anti-Parasitic Activity of Arylidene Ketones and Thiazolidene Hydrazines against Trypanosoma cruzi and Leishmania spp” (Molecules : A Journal of Synthetic Chemistry and Natural …, 2017).
# Like-named read-outs stand apart in the source and are kept apart here. Marks after values point to notes of the source that are not given here.
# How the values were obtained:
# [1] = test system: T. cruzi epimastigotes, Tulahuen 2 strain (genotype TcVI); assay: In vitro anti-T. cruzi activity, growth inhibition of epimastigotes; assay type: cell-based, Trypanosoma cruzi; conditions: for IC50: Trypanosoma cruzi, TULAHUEN; for Trypanocidal activity on T. cruzi in words: molecular stripping, epimastigotes
# Protocol: For the in vitro anti-T. cruzi activity, we used epimastigotes of the Tulahuen 2 strain (genotype TcVI) grown in an axenic milieu (BHI-Tryptose). Cells from a 5–7-day-old culture were inoculated in fresh culture milieu to give an initial concentration of 1.00 × 10^6 cells/mL. The absorbance at 600 nm of the cells in culture was measured every day. At Day 5, the milieu was inoculated with different quantities of the compounds from a stock solution in DMSO (DMSO concentration in the culture milieu never exceeded 0.4%). The control was made in the presence of 0.4% DMSO and in the absence of compounds. Each concentration of compound was evaluated in duplicate. At Day 5, the absorbance of the culture was measured and related to the control. […] Each antiproliferative experiment was done in duplicate, and each concentration was tested in triplicate.
# [2] = test system: L. infantum promastigotes; assay: Leishmanicidal activity on promastigotes, resazurin; assay type: cell-based, Leishmania infantum; conditions: for IC50: 48 h, read-out: IC50 ± SD Promastigotes L. infantum; for SI NCTC/ L. infantum: ratio IC50 mammalian cell / IC50 parasite (promastigotes)
# From the text: (§1) We initially selected compounds previously reported to have anti-T. cruzi activity from our chemical library to evaluate their leishmanicidal activity. […]. To evaluate their activity in Leishmania spp., we performed a phenotypic screening using the promastigote form of L. infantum (MHOM/FR/91/LEM-2259) and L. braziliensis ([…]) (Table 1A for the thiazolidenehydrazine derivate and Table 1B for the arylideneketones family).
# (§2) A culture of L. braziliensis (MHOM/BR/75/M2904) and L. infantum (MHOM/FR/91/LEM2259V) was obtained from the Facultad de Farmacia (Universidad Complutense, Madrid, Spain). The maintenance of the strains, the form of cultivation and the isolation of the shape of the promastigote were performed following the procedures described by Roldos et al.. The promastigotes were grown at 22 °C in Schneider’s Drosophila medium supplemented with 20% FBS. The assay was performed using a modification of a previous method. Promastigotes (2 × 10^6 parasites/well) were cultivated in 96-well plastic plates. Compounds were dissolved in dimethylsulfoxide (DMSO). Different dilutions of the compounds with a final volume up to 200 µL were added. After 48 h at 26 °C, 20 µL of a 2 mM resazurin solution were added, and the oxidation-reduction was quantified at 570 and 600 nm. The solution of resazurin was prepared at 2.5 mM in phosphate buffered solution (PBS), pH 7.4, and filtered through 0.22-µm membranes prior to use. All tests were carried out in triplicate. Resazurin sodium salt was obtained from Sigma-Aldrich (St. Louis, MO, USA) and stored at 4 °C protected from light. The efficacy of each compound was estimated by calculating the IC50 values. Each antiproliferative experiment was done in duplicate, and each concentration was tested in triplicate.
# [3] = test system: L. braziliensis promastigotes; assay: as above; assay type: cell-based, Leishmania braziliensis; conditions: for IC50: 48 h, read-out: IC50 ± SD Promastigotes L. braziliensis; for SI NCTC/ L. braziliensis: ratio IC50 mammalian cell / IC50 parasite (promastigotes)
# From the text: as §1, §2
# [4] = test system: T. cruzi epimastigotes, Tulahuen 2 strain (genotype TcVI); conditions: cited from earlier work; for IC50: read-out: IC50 ± SD Epimastigotes T. cruzi; for SI J774.1/ T. cruzi: ratio IC50 mammalian cell / IC50 parasite (epimastigotes)
# NCTC929 fibroblasts = assay: Nonspecific cytotoxicity on fibroblasts, resazurin; assay type: cell-based; conditions: NCTC-929, 24 h; read-out: IC50 ± SD Fibroblast NCTC929
# Protocol: To establish the selectivity of the compounds against the parasites, nonspecific cytotoxicity against mammalian cells, using J774.1 murine macrophages and fibroblast NCTC929, was studied for the most relevant derivatives. The selectivity indexes were calculated as the ratio between cytotoxicity for mammalian cells and the anti-parasitic activity (Table 2).
# NCTC-Clone 929 were grown in minimal essential medium (Sigma) supplemented with 10% heat-inactivated FBS, penicillin G (100 U/mL) and streptomycin (100 µg/mL). Cell cultures were maintained at 37 °C in a humidified 5% CO2 atmosphere. The procedure for cell viability measurement was evaluated with resazurin by a colorimetric method. The cells were plated in 96 microtiter plates at 3.00 × 10^4 cells/well in 100 µL growth medium. The cells were grown overnight at 37 °C, 5% CO2. Thereafter, the medium was removed, and the compounds were added to 200 µL of medium for 24 h. After incubation, 20 µL of a 2 mM resazurin solution were added to each well. The plates were incubated for 3 h to allow optimal oxidation-reduction. The reduction of resazurin was determined by dual wavelength absorbance measurement at 490 and 595 nm. The background was subtracted. Each concentration was assayed three times. Medium and drug controls were used in each test as blanks.
# [5] = test system: J774.1 murine macrophages; conditions: J774.1; read-out: IC50 ± SD Murine Macrophages; cited from earlier work
# zebrafish embryos = assay: Zebrafish embryo toxicity test (LD50)
# Protocol: […] Only embryos that were clearly undamaged after 60 min of observation were kept and subsequently used. Dechorionated embryos were further manipulated using flame-rounded tip glass Pasteur pipettes. […] In all cases, the embryos were incubated in system water with 1% DMSO (negative control) and the compound at different doses between 8 and 96 hpf. The treatment solution was changed daily. […] At selected time points, namely 24, 48, 72 and 96 hpf, embryotoxicity (= mortality) and morphological characteristics of the embryos were evaluated using a Nikon SMZ800 stereomicroscope. The embryos were evaluated for the presence and morphological development (as appropriate) of somites, tail detachment, eyes, heart beat and blood circulation. All individuals were evaluated at all time points.
# [6] = Tulahuen 2 strain, read-out: IC50 ± SD Epimastigotes T. cruzi
# [7] = Figure 4, molecular stripping of HIT1, read-out: Effect of structural change on trypanocidal activity (emoticon code)
compound,measurement,setting,value
O=C1/C(=C/C=C/c2ccccc2)CCC/C1=C\C=C\c1ccccc1 [EA143],IC50,[1]; [6],14 ± 3 µM
same,IC50,[2]; Leishmania infantum,> 25 µM
same,IC50,[3]; Leishmania braziliensis,> 25 µM
O=C1/C(=C/c2ccco2)CCC/C1=C\c1ccco1 [EA154],IC50,[1]; [6],7 ± 2 µM
same,IC50,[2]; Leishmania infantum,> 25 µM
same,IC50,[3]; Leishmania braziliensis,> 25 µM
"Nc1nc(-c2ccc(Cl)cc2)cs1 [GAT2012, 4(4-Chlorophenyl)-thiazol-2(3H)-ylidene-2-amine]",IC50,[1]; [6],> 25 µM
same,Trypanocidal activity on T. cruzi in words,[1],lack of activity
C=CCn1c(-c2ccc(Br)cc2)cs\c1=N/N=C/C(C)=C/c1ccco1 [GAT2015],IC50,[2],> 25 µM
same,IC50,[3],> 25 µM
"C=CCn1c(C(=O)CN2CCN(Cc3ccccc3)CC2)cs/c1=N/N=C\C=C\c1ccco1 [GATk5, 1-((Z)-3-allyl-2-((E)-((E)-3-(furan-2-yl)allylidene)hydrazono)-2,3-dihydrothiazol-4-yl)-2-(4-benzylpiperazin-1-yl)ethanone]",IC50,[1]; [7],> 25 µM
same,IC50,[1]; [6],> 25 µM
"C=CCn1c(C(=O)CNN2CCN(CC=Cc3ccccc3)CC2)cs/c1=N/N=C\C=C\c1ccco1 [GAT0613, 1-((Z)-3-allyl-2-((E)-((E)-3-(furan-2-yl)allylidene)hydrazono)-2,3-dihydrothiazol-4-yl)-2-((4-cinnamylpiperazin-1-yl)amino)ethanone]",IC50,[1]; [6],11 ± 4 µM
same,Trypanocidal activity on T. cruzi in words,[1],the activity was lost
same,melting point,,150 to 153 °C
same,IC50,[2]; Leishmania infantum,> 25 µM
same,IC50,[3]; Leishmania braziliensis,25 µM
Clc1ccc(-c2csc(N/N=C/C=C/c3ccco3)n2)cc1 [GAT2212B],IC50,[1]; [6],1.2 ± 0.3 µM
same,melting point,,212 °C (dec.)
same,IC50,[2]; Leishmania infantum,25 µM
same,IC50,[3]; Leishmania braziliensis,> 25 µM
O=C1/C(=C/c2ccccc2)CCC/C1=C\c1ccccc1 [EA142],IC50,[4],5.1 ± 0.3 µM
same,IC50,[2]; Leishmania infantum,9.6 ± 0.9 µM
same,IC50,[3]; Leishmania braziliensis,4.2 ± 0.7 µM
O=C1/C(=C/C=C/c2ccco2)CC/C1=C\C=C\c1ccco1 [EA161],IC50,NCTC929 fibroblasts,756 ± 17 µM
same,SI J774.1/ T. cruzi,[4],4 ^c
same,IC50,[4],5.4 ± 1.6 µM
same,IC50,[2]; Leishmania infantum,16 ± 4 µM
same,SI NCTC/ L. infantum,[2],47
same,IC50,[5],19 ± 2 µM
same,IC50,[3]; Leishmania braziliensis,18 ± 4 µM
same,SI NCTC/ L. braziliensis,[3],42
"C=CCn1c(C(=O)CN2CCSCC2)cs/c1=N/N=C\C=C\c1ccco1 [GATk2, 1-((Z)-3-allyl-2-((E)-((E)-3-(furan-2-yl)allylidene)hydrazono)-2,3-dihydrothiazol-4-yl)-2-thiomorpholinoethanone]",IC50,[1]; [6],8 ± 1 µM
"CC(=O)N1CCN(c2ccc(OCC3COC(Cn4ccnc4)(c4ccc(Cl)cc4Cl)O3)cc2)CC1 (stereo not shown) [Ketoconazole, reference compound]",LD50 without chorion,"zebrafish embryos; dechorionated zebrafish embryos, 72 h incubation",12 ± 3 µM
same,LD50 with chorion,zebrafish embryos; zebrafish embryos with chorion,> 25 µM
O=C1/C(=C/C=C/c2cccs2)CCC/C1=C\C=C\c1cccs1 [EA156],IC50,NCTC929 fibroblasts,1980 ± 20 µM
same,SI J774.1/ T. cruzi,[4],33 ^c
same,IC50,[4],0.6 ± 0.2 µM
same,IC50,[2]; Leishmania infantum,16 ± 3 µM
same,SI NCTC/ L. infantum,[2],124
same,IC50,[5],20 ± 1 µM
same,IC50,[3]; Leishmania braziliensis,> 100 µM
"Cc1ccc(/C=C/C=N/N2CCN(CC=Cc3ccccc3)CC2)o1 [GAT0413, (E)-4-cinnamyl-N-((E)-3-(5-methylfuran-2-yl)allylidene)piperazin-1-amine]",IC50,[1]; [7],5 to 25 µM
same,IC50,[1]; [6],12 ± 2 µM
same,Trypanocidal activity on T. cruzi in words,[1],the activity was restored
same,IC50,[2]; Leishmania infantum,> 25 µM
same,IC50,[3]; Leishmania braziliensis,> 25 µM
O=C(/C=C/C=C/c1ccccc1)/C=C/C=C/c1ccccc1 [EA139],IC50,[1]; [6],11 ± 1 µM
same,IC50,[2]; Leishmania infantum,> 25 µM
same,IC50,[3]; Leishmania braziliensis,> 25 µM
O=C(/C=C/C=C/C=C/c1cccs1)/C=C/C=C/C=C/c1cccs1 [EA152],IC50,[1]; [6],> 25 µM
same,IC50,[2]; Leishmania infantum,30 ± 8 µM
same,IC50,[3]; Leishmania braziliensis,> 100 µM
C=CCn1c(-c2ccc(Cl)cc2)cs\c1=N/N=C/C=C/C=C/c1ccco1 [GATA2],IC50,[1]; [6],10 ± 2 µM
O=C(/C=C/c1ccco1)/C=C/c1ccco1 [EA134],IC50,NCTC929 fibroblasts,114 ± 2 µM
same,SI J774.1/ T. cruzi,[4],5 ^c
same,IC50,[4],24 ± 2 µM
same,IC50,[2]; Leishmania infantum,6 ± 2 µM
same,SI NCTC/ L. infantum,[2],19
same,IC50,[5],115 ± 6 µM
same,IC50,[3]; Leishmania braziliensis,10 ± 6 µM
same,SI NCTC/ L. braziliensis,[3],11
"C=CCn1c(C(=O)CNCc2ccccc2)cs/c1=N/N=C\C=C\c1ccco1 [GATk4, 1-((Z)-3-allyl-2-((E)-((E)-3-(furan-2-yl)allylidene)hydrazono)-2,3-dihydrothiazol-4-yl)-2-(benzylamino)ethanone]",IC50,[1]; [7],> 25 µM
same,IC50,[1]; [6],> 25 µM
"C=CCn1c(C(=O)CN2CCN(c3ccccc3)CC2)csc1=NN=CC=Cc1ccco1 [GATk1, (2E,2Z)-2-(2-((E)-3-(furan-2-yl)propeniliden)hydrazono)-(3-allyl-2,3-dihydrothiazol-4-yl)-2-(4-phenylpiperazin-1-yl)ethanone]",IC50,[1]; [7],> 25 µM
same,IC50,[1]; [6],> 25 µM
"CN1C/C(=C\C=C\c2ccco2)C(=O)/C(=C/C=C/c2ccco2)C1 [Pg150, (3E,5E)-3,5-Bis((E)-3-(furan-2-yl)allylidene)-1-methylpiperidin-4-one]",IC50,[1]; [6],> 25 µM
same,Trypanocidal activity on T. cruzi in words,[1],the activity was completely lost
same,IC50,[2]; Leishmania infantum,> 25 µM
same,IC50,[3]; Leishmania braziliensis,> 25 µM
O=C(C=Cc1ccco1)N1CCN(CC=Cc2ccccc2)CC1 [GAT0804],IC50,[1]; [7],> 25 µM
O=C(/C=C/C=C/c1cccs1)/C=C/C=C/c1cccs1 [EA141],IC50,NCTC929 fibroblasts,1700 ± 40 µM
same,SI J774.1/ T. cruzi,[4],1 ^c
same,IC50,[4],12.6 ± 1.4 µM
same,IC50,[2]; Leishmania infantum,19 ± 5 µM
same,SI NCTC/ L. infantum,[2],90
same,IC50,[5],10 ± 2 µM
same,IC50,[3]; Leishmania braziliensis,36 ± 3 µM
same,SI NCTC/ L. braziliensis,[3],47
C=CCn1c(C(=O)N2CCSCC2)csc1=NN=CC=Cc1ccco1 [GATjm18],IC50,[1]; [6],2.7 ± 0.5 µM
same,Trypanocidal activity on T. cruzi in words,[1],the activity was maintained
C=CCn1c(C(=O)NN2CCN(C/C=C/c3ccccc3)CC2)cs\c1=N/N=C/C=C/c1ccco1 [GAT1613],IC50,[1]; [6],20 ± 2 µM
same,Trypanocidal activity on T. cruzi in words,[1],the activity was lost
"Clc1ccc(-c2csc(/N=C/C=C/c3ccco3)n2)cc1 [GAT2112, (E)-4-(4-Chlorophenyl)-N-((E)-3-(furan-2-yl)allylidene)thiazol-2-amine]",Trypanocidal activity on T. cruzi in words,[1],the activity was lost
O=C1/C(=C/C=C/c2cccs2)CC/C1=C\C=C\c1cccs1 [EA160],IC50,NCTC929 fibroblasts,4909 ± 36 µM
same,SI J774.1/ T. cruzi,[4],375 ^c
same,IC50,[4],0.04 ± 0.01 µM
same,IC50,[2]; Leishmania infantum,11 ± 3 µM
same,SI NCTC/ L. infantum,[2],446
same,IC50,[5],15 ± 1 µM
same,IC50,[3]; Leishmania braziliensis,> 100 µM
